Results published in patent US12459951B2, “Compounds that interact with RAS superfamily proteins for treatment of cancers, inflammatory diseases, rasopathies, and fibrotic disease” (SHY Therapeutics, LLC, priority 2022, dated 2025).

How the values were obtained:
Erk1/2 phosphorylation = test: Erk1/2 Phosphorylation Assay (western blot), Panc-1; format: cell-based, human; conditions: at 10 μM, * = activation
How it was run: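 KRas G12D Panc-1 cells were treated 6 h at 37° C with compound at 10 μM or serial dilutions for IC50 (0.3% DMSO). In method 1, cells were serum-starved overnight (0.5% FBS) and then given 1.5 ng/ml EGF for 15 min. In method 2, cells stayed in 10% FBS without stimulation. Lysate phospho-Erk1/2 (Thr202/Tyr204) was read by western blot.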

[1] = system: Smad2/Smad3 phosphorylation; test: Phospho-Smad2/3 Inhibition Assay (western blot), Panc-1; format: cell-based, human; conditions: at 10 μM, Panc-1 pancreatic cancer cell line; starred symbols = activation
How it was run: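 Panc-1 cells (KRas G12D), starved overnight in 0.5% FBS, treated 3 h at 37° C with compound at 10 μM final (0.3% DMSO) or serial dilutions for IC50, then stimulated with 10 ng/ml TGF-b1 for 1 h. Phospho-Smad2 (Ser465/467) and phospho-Smad3 (Ser423/425) detected by western blot.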

SMILES | % inh of Erk1/2 phosphorylation in Panc-1 (Erk1/2 phosphorylation) | % inh of Smad2/3 phosphorylation in Panc-1 [1]
COCC1CCN(c2nc(-c3ccccn3)nn3cc(-c4ccn(C(C)C)n4)c(C)c23)C1 (racemic) [Compound 10, rac 6-(1-Isopropyl-1H-pyrazol-3-yl)-4-(3-(methoxymethyl)pyrrolidin-1-yl)-5-methyl-2-(pyridin-2-yl)pyrrolo[2,1-f][1,2,4]triazine] | 0 (0% inhibition) | A (A = 1-25% inhibition)
COC[C@@H]1CC[C@@H]1CNc1nc(-c2ccccn2)nn2cc(-c3ccn(C(C)C)n3)c(C)c12 (racemic) [Compound 11, rac 6-(1-Isopropyl-1H-pyrazol-3-yl)-N-(((1S,2R)-2-(methoxymethyl)cyclobutyl)methyl)-5-methyl-2-(pyridin-2-yl)pyrrolo[2,1-f][1,2,4]triazin-4-amine] | 0 (0% inhibition) | 0 (0 = 0% inhibition)
COC1CCCN(c2nc(-c3ccccn3)nn3cc(-c4ccn(C(C)C)n4)c(C)c23)C1 (racemic) [Compound 12, rac 6-(1-Isopropyl-1H-pyrazol-3-yl)-4-(3-methoxypiperidin-1-yl)-5-methyl-2-(pyridin-2-yl)pyrrolo[2,1-f][1,2,4]triazine] | 0 (0% inhibition) | 0 (0 = 0% inhibition)
CO[C@H]1CC[C@H](Nc2nc(-c3nccn3C)nn3cc(-c4ccn(C)n4)c(C(=O)NCC(F)(F)F)c23)C1 (racemic) [Compound 181, 4-(((1S,3S)-3-Methoxycyclopentyl)amino)-2-(1-methyl-1H-imidazol-2-yl)-6-(1-methyl-1H-pyrazol-3-yl)-N-(2,2,2-trifluoroethyl)pyrrolo[2,1-f][1,2,4]triazine-5-carboxamide] | A (1-25% inhibition) | A (A = 1-25% inhibition)
CO[C@H]1CC[C@H](Nc2nc(-c3nccn3C)nn3cc(-c4ccn(C)n4)c(C(=O)NC4CC4)c23)C1 (racemic) [Compound 182, rac N-Cyclopropyl-4-(((1S,3S)-3-methoxycyclo-pentyl)amino)-2-(1-methyl-1H-imidazol-2-yl)-6-(1-methyl-1H-pyrazol-3-yl)pyrrolo[2,1-f][1,2,4]triazine-5-carboxamide] | A* (1-25% activation) | A* (A* = 1-25% activation)
COCCNC(=O)c1c(-c2ccn(C)n2)cn2nc(-c3nccn3C)nc(N[C@H]3CC[C@H](OC)C3)c12 (racemic) [Compound 183, rac 4-(((1S,3S)-3-Methoxycyclo-pentyl)amino)-N-(2-methoxyethyl)-2-(1-methyl-1H-imidazol-2-yl)-6-(1-methyl-1H-pyrazol-3-yl)pyrrolo[2,1-f][1,2,4]triazine-5-carboxamide] | D* (85-100% activation) | D* (D* = 76-100% activation)
COCCCNC(=O)c1c(-c2ccn(C)n2)cn2nc(-c3nccn3C)nc(N[C@H]3CC[C@H](OC)C3)c12 (racemic) [Compound 184, rac 4-(((1S,3S)-3-methoxycyclo-pentyl)amino)-N-(3-methoxypropyl)-2-(1-methyl-1H-imidazol-2-yl)-6-(1-methyl-1H-pyrazol-3-yl)pyrrolo[2,1-f][1,2,4]triazine-5-carboxamide] | A* (1-25% activation) | B* (B* = 26-45% activation)
CO[C@H]1CC[C@H](Nc2nc(-c3nccn3C)nn3cc(-c4ccn(C)n4)c(C(=O)NCCN4CCOCC4)c23)C1 (racemic) [Compound 185, rac 4-(((1S,3S)-3-methoxycyclo-pentyl)amino)-2-(1-methyl-1H-imidazol-2-yl)-6-(1-methyl-1H-pyrazol-3-yl)-N-(2-morpholino-ethyl)pyrrolo[2,1-f][1,2,4]triazine-5-carboxamide] | B (26-49% inhibition) | B* (B* = 26-45% activation)
CO[C@@H]1C[C@H]1Nc1nc(-c2nccn2C)nn2cc(-c3cccnc3)c(-c3ccccc3)c12 (racemic) [Compound 190, N-((1R,2R)-2-Methoxycyclopropyl)-2-(1-methyl-1H-imidazol-2-yl)-5-phenyl-6-(pyridin-3-yl)pyrrolo[2,1-f][1,2,4]triazin-4-amine] | D* (85-100% activation) | A (A = 1-25% inhibition)
CO[C@H]1CC[C@@H](Nc2nc(-c3nccn3C)nn3cc(-c4cccnc4)c(-c4ccccc4)c23)C1 (racemic) [Compound 193, rac N-((1R,3S)-3-Methoxycyclopentyl)-2-(1-methyl-1H-imidazol-2-yl)-5-phenyl-6-(pyridin-3-yl)pyrrolo[2,1-f][1,2,4]triazin-4-amine] | D* (85-100% activation) | A (A = 1-25% inhibition)
CO[C@H]1CC[C@H](Nc2nc(-c3nccn3C)nn3cc(-c4cccnc4)c(-c4ccccc4)c23)C1 (racemic) [Compound 194, rac N-((1S,3S)-3-Methoxycyclopentyl)-2-(1-methyl-1H-imidazol-2-yl)-5-phenyl-6-(pyridin-3-yl)pyrrolo[2,1-f][1,2,4]triazin-4-amine] | D* (85-100% activation) | A (A = 1-25% inhibition)
CO[C@@H]1C[C@H]1Nc1nc(-c2nccn2C)nn2cc(-c3ccncc3)c(-c3ccccc3)c12 (racemic) [Compound 197, rac N-((1R,2R)-2-methoxycyclopropyl)-2-(1-methyl-1H-imidazol-2-yl)-5-phenyl-6-(pyridin-4-yl)pyrrolo[2,1-f][1,2,4]triazin-4-amine] | D* (85-100% activation) | C (C = 46-75% inhibition)
CO[C@H]1CC[C@@H](Nc2nc(-c3nccn3C)nn3cc(-c4ccncc4)c(-c4ccccc4)c23)C1 (racemic) [Compound 200, rac N-((1R,3S)-3-Methoxycyclopentyl)-2-(1-methyl-1H-imidazol-2-yl)-5-phenyl-6-(pyridin-4-yl)pyrrolo[2,1-f][1,2,4]triazin-4-amine] | D* (85-100% activation) | A (A = 1-25% inhibition)
CO[C@H]1CC[C@H](Nc2nc(-c3nccn3C)nn3cc(-c4ccncc4)c(-c4ccccc4)c23)C1 (racemic) [Compound 201, rac N-((1S,3S)-3-Methoxycyclopentyl)-2-(1-methyl-1H-imidazol-2-yl)-5-phenyl-6-(pyridin-4-yl)pyrrolo[2,1-f][1,2,4]triazin-4-amine] | D* (85-100% activation) | A (A = 1-25% inhibition)
COc1cc(Nc2nc(-c3ccccn3)nn3cc(-c4ccn(C(C)C)n4)c(C)c23)ncn1 [Compound 13, 6-(1-Isopropyl-1H-pyrazol-3-yl)-N-(6-methoxypyrimidin-4-yl)-5-methyl-2-(pyridin-2-yl)pyrrolo[2,1-f][1,2,4]triazin-4-amine] | 0 (0% inhibition) | 0 (0 = 0% inhibition)
COc1cccc(Nc2nc(-c3ccccn3)nn3cc(-c4ccn(C(C)C)n4)c(C)c23)n1 [Compound 14, 6-(1-Isopropyl-1H-pyrazol-3-yl)-N-(6-methoxypyridin-2-yl)-5-methyl-2-(pyridin-2-yl)pyrrolo[2,1-f][1,2,4]triazin-4-amine] | 0 (0% inhibition) | 0 (0 = 0% inhibition)
COc1cccc(-c2cn3nc(-c4nccn4C)nc(O)c3c2C)c1Cl [Compound 15, 6-(2-Chloro-3-methoxyphenyl)-5-methyl-2-(1-methyl-1H-imidazol-2-yl)pyrrolo[2,1-f][1,2,4]triazin-4-ol] | 0 (0% inhibition) | 0 (0 = 0% inhibition)
COCCNc1nc(-c2nccn2C)nn2cc(-c3cccc(OC)c3Cl)c(C)c12 [Compound 16, 6-(2-Chloro-3-methoxyphenyl)-N-(2-methoxyethyl)-5-methyl-2-(1-methyl-1H-imidazol-2-yl)pyrrolo[2,1-f][1,2,4]triazin-4-amine] | A (1-25% inhibition) | 0 (0 = 0% inhibition)
COc1cc(Nc2nc(-c3nccn3C)nn3cc(-c4cccnc4)c(-c4cccnc4)c23)ncn1 [Compound 170, N-(6-Methoxypyrimidin-4-yl)-2-(1-methyl-1H-imidazol-2-yl)-5,6-di(pyridin-3-yl)pyrrolo[2,1-f][1,2,4]triazin-4-amine] | A* (1-25% activation) | A (A = 1-25% inhibition)
CO[C@H]1C[C@H](Nc2nc(-c3nccn3C)nn3cc(-c4cccnc4)c(-c4cccnc4)c23)C1 [Compound 171, N-((1r,3r)-3-Methoxycyclobutyl)-2-(1-methyl-1H-imidazol-2-yl)-5,6-di(pyridin-3-yl)pyrrolo[2,1-f][1,2,4]triazin-4-amine] | B (26-49% inhibition) | B (B = 26-45% inhibition)
Cc1c(-c2ccn(C)n2)cn2nc(-c3nccn3C)nc(O)c12 [Compound 172, 5-Methyl-2-(1-methyl-1H-imidazol-2-yl)-6-(1-methyl-1H-pyrazol-3-yl)pyrrolo[2,1-f][1,2,4]triazin-4-ol] | 0 (0% inhibition) | A (A = 1-25% inhibition)
